Source: US20150086480A1, “HETEROARYL INHIBITORS OF PDE4” (Tetra Discovery Partners, LLC, priority 2013, published 2015)

What was measured:
recombinant human PDE4 = settings: read-out: reported IC50 with respect to inhibiting recombinant human PDE4; cited from earlier work
[1] = target: human PDE4D7 (mutation of serine 54 to aspartic acid) (Homo sapiens, UniProt Q08499, S190D); experiment: Kinetic assay of PDE4 activity (cAMP hydrolysis, coupled-enzyme fluorescence); format: biochemical; settings: inhibition of cAMP hydrolysis by human PDE4D; each concentration tested in duplicate; FIG. 1; read-out: One-half maximal inhibition of PDE4D (IC50)
Description: PDE4D inhibition is measured by the method of Burgin et al, (2010) Design of Phosphodiesterase Type 4D (PDE4D) Allosteric Modulators for Cognition with Improved Safety. Nature Biotechnology 28:63-70. Each concentration of Example 1 was tested in duplicate (round symbols).
PDE4 activity may be measured by any method known in the art. Here, a kinetic assay of cAMP hydrolysis by purified PDE4 was used, in which PDE4 activity was measured by coupling the formation of the PDE4 reaction product, 5′-adenosine monophosphate, to the oxidation of reduced nicotinamide adenine dinucleotide (NADH) by the use of three coupling enzymes (myokinase, pyruvate kinase and lactate dehydrogenase), which allows fluorescent determination of reaction rates. Assays are performed in 96-well plates in a total volume of 200 μl/well. Compounds are dissolved in dimethylsulfoxide (DMSO) and added to plates in a volume of 10 μl followed by addition of 165 μl of assay mix. Plates are pre-incubated at 25° C. for 15 min and the reactions are initiated by the addition of 25 μl of cAMP followed by thorough mixing. Reaction rates are measured by monitoring the decrease in fluorescence using excitation at 355 nm and emission at 460 nm for a period of 10 min in a fluorescence plate reader. Initial rates (slopes) are determined from linear portions of the progress curves. […]

Chain of human PDE4D7 (mutation of serine 54 to aspartic acid) (Q08499 1-748 isoform Q08499-11 S129D): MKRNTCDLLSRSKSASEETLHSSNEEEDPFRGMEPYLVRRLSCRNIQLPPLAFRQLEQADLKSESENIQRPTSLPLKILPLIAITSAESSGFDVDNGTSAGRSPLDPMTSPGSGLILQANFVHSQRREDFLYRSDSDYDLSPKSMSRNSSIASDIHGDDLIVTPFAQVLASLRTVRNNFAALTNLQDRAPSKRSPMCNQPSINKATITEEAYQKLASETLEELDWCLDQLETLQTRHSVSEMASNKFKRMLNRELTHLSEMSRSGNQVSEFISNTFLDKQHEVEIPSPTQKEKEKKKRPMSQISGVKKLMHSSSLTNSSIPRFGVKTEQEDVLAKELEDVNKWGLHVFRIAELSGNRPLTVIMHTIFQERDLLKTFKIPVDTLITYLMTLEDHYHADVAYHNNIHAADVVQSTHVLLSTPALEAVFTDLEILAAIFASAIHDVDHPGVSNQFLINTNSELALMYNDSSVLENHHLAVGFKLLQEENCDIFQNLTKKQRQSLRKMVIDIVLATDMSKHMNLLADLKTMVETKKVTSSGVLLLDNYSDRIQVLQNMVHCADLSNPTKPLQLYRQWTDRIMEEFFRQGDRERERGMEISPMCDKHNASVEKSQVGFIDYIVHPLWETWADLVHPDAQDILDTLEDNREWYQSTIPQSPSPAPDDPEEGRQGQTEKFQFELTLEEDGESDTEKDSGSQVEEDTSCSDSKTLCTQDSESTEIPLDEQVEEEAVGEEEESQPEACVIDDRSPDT

| Structure (SMILES) | IC50 (recombinant human PDE4) [nM] | IC50 [1] [nM] |
| --- | --- | --- |
| COc1ccc(C2CNC(=O)C2)cc1OC1CCCC1 (centres unmarked) [rolipram] | ~200 |  |
| O=[N+]([O-])c1cccc(-c2cc(Cc3ccc(F)cc3)cc3c2OCC3)c1 [Example 1, 5-[(4-fluorophenyl)methyl]-7-(3-nitrophenyl)-2,3-dihydrobenzofuran] |  | 0.15 |
